Assay results reported in PubChem BioAssay AID330 (DTP/NCI, 2004).
“And” between values parts separate entries of the source, which are not always exact repeats. Equal values may be shown once. Inconclusive results and toxic doses are left out.

Test system: P388 leukemia ip, CD2F1 mice, survival T/C
Assay: NCI In Vivo Anticancer Drug Screen. Data for tumor model P388 Leukemia (intraperitoneal) in CD2F1 (CDF1) mice
Conditions: endpoint: median survival time, higher = longer survival
How it was run: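 Mice carrying the transplanted tumor received test compound or vehicle. Survival was recorded in each group, and the value is the treated-group measurement divided by that of the vehicle-treated control group.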

[1] = dose: 50.0 mg/kg/injection, schedule: Q01DX009 (ip), vehicle: saline with Tween-80
[2] = dose: 100.0 mg/kg/injection, schedule: Q01DX009 (ip), vehicle: saline with Tween-80
[3] = dose: 50.0 mg/kg/injection, schedule: Q01DX005 (ip), vehicle: saline with Tween-80
[4] = dose: 100.0 mg/kg/injection, schedule: Q01DX005 (ip), vehicle: saline with Tween-80
[5] = dose: 200.0 mg/kg/injection, schedule: Q01DX005 (ip), vehicle: saline with Tween-80
[6] = dose: 3.0 mg/kg/injection, schedule: Q01DX009 (ip), vehicle: saline with Tween-80
[7] = dose: 50.0 mg/kg/injection, schedule: Q01DX009 (ip), vehicle: Klucel (hydroxypropylcellulose) (HPC)
[8] = dose: 100.0 mg/kg/injection, schedule: Q01DX009 (ip), vehicle: Klucel (hydroxypropylcellulose) (HPC)
[9] = dose: 200.0 mg/kg/injection, schedule: Q01DX009 (ip), vehicle: Klucel (hydroxypropylcellulose) (HPC)

In the case of `Cc1c2cnccc2c(C)c2c1[nH]c1ccccc12`, the T/C (dose: 25.0 mg/kg/injection, schedule: Q04DX002 (ip), vehicle: Klucel (hydroxypropylcellulose) (HPC)) is reported as 98 % of control, the T/C (dose: 50.0 mg/kg/injection, schedule: Q04DX002 (ip), vehicle: Klucel (hydroxypropylcellulose) (HPC)) is reported as 103 % of control and the T/C (dose: 100.0 mg/kg/injection, schedule: Q04DX002 (ip), vehicle: Klucel (hydroxypropylcellulose) (HPC)) is reported as 105 % of control. For the same compound, the T/C (dose: 180.0 mg/kg/injection, schedule: Q04DX002 (ip), vehicle: Klucel (hydroxypropylcellulose) (HPC)) was 94 % of control, the T/C (dose: 200.0 mg/kg/injection, schedule: Q04DX002 (ip), vehicle: Klucel (hydroxypropylcellulose) (HPC)) was 111 % of control and the T/C (dose: 360.0 mg/kg/injection, schedule: Q04DX002 (ip), vehicle: Klucel (hydroxypropylcellulose) (HPC)) was 108 % of control.

For `C=C1C(=O)OC2/C=C(/C)C(OC(C)=O)CC(O)/C(C)=C\C(OC(=O)/C(C)=C\C)C12` (stereo unspecified), the T/C (dose: 12.5 mg/kg/injection, schedule: Q01DX009 (ip), vehicle: saline with Tween-80) was 100 % of control, the T/C (dose: 25.0 mg/kg/injection, schedule: Q01DX009 (ip), vehicle: saline with Tween-80) was 117 % of control and the T/C [1] was 118 % of control. For the same compound, the T/C [2] was 114 % of control.

In the case of `O=C1CN(c2ccccc2)C(=O)CN1Nc1ccccc1`, the T/C [1] is reported as 93 % of control and the T/C [2] is reported as 93 % of control.

For `CCCCN1C(=O)NC(C)C1=O` (stereo unspecified), the T/C [3] was 99 % of control, the T/C [4] was 108 % of control and the T/C [5] was 103 % of control.

In the case of `CC1OC(OC2C(CO)OC(O[C@H]3CC[C@@]4(C)C(=CC[C@H]5[C@@H]6C[C@@H]7O[C@]8(CC[C@@H](C)CN8)[C@@H](C)[C@@H]7[C@@]6(C)CC[C@@H]54)C3)C(O)C2O)C(O)C(O)C1O` (stereo partly specified), the T/C (dose: 12.5 mg/kg/injection, schedule: Q01DX005 (ip), vehicle: acid diluted with saline) is reported as 101 % of control, the T/C (dose: 25.0 mg/kg/injection, schedule: Q01DX005 (ip), vehicle: acid diluted with saline) is reported as 105 % of control and the T/C (dose: 50.0 mg/kg/injection, schedule: Q01DX005 (ip), vehicle: acid diluted with saline) is reported as 105 % of control and 87 % of control. The T/C (dose: 100.0 mg/kg/injection, schedule: Q01DX005 (ip), vehicle: acid diluted with saline) was 105 % of control.

In the case of `CC1CC[N-]CC1.CC1CC[N-]CC1.CS(C)=O.[Cl][Rh]([Cl])[Cl]`, the T/C [6] is reported as 104 % of control, the T/C (dose: 3.0 mg/kg/injection, schedule: Q04DX003 (ip), vehicle: saline with Tween-80) is reported as 104 % of control and the T/C (dose: 6.0 mg/kg/injection, schedule: Q01DX009 (ip), vehicle: saline with Tween-80) is reported as 95 % of control. For the same compound, the T/C (dose: 6.0 mg/kg/injection, schedule: Q04DX003 (ip), vehicle: saline with Tween-80) was 100 % of control, the T/C (dose: 12.0 mg/kg/injection, schedule: Q01DX009 (ip), vehicle: saline with Tween-80) was 95 % of control and the T/C (dose: 12.0 mg/kg/injection, schedule: Q04DX003 (ip), vehicle: saline with Tween-80) was 109 % of control.

`CC1(C)C(=O)c2ccccc2-c2ccccc21` was tested, and the T/C [3] was 101 % of control, the T/C [4] was 104 % of control and the T/C [5] was 103 % of control.

With `CC(C)c1ccc(C(CC(=O)c2ccccc2)C(C(=O)O)c2ccccc2)cc1` (stereo unspecified) the T/C [7] was 97 % of control, the T/C [8] was 89 % of control and the T/C [9] was 89 % of control.

For `O=C1NC(=O)C2(N1)C1CCCCC2C(c2ccccc2)NC1c1ccccc1` (stereo unspecified), the T/C (dose: 100.0 mg/kg/injection, schedule: Q01DX001 (ip), vehicle: saline with Tween-80) was 100 % of control, the T/C (dose: 200.0 mg/kg/injection, schedule: Q01DX001 (ip), vehicle: saline with Tween-80) was 98 % of control and the T/C (dose: 400.0 mg/kg/injection, schedule: Q01DX001 (ip), vehicle: saline with Tween-80) was 96 % of control.

With `C[n+]1ccccc1NC(=O)c1ccccc1` the T/C (dose: 61.5 mg/kg/injection, schedule: Q01DX001 (ip), vehicle: saline) was 100 % of control, the T/C (dose: 123.0 mg/kg/injection, schedule: Q01DX001 (ip), vehicle: saline) was 104 % of control and the T/C (dose: 246.0 mg/kg/injection, schedule: Q01DX001 (ip), vehicle: saline) was 104 % of control.

For `C#CCOC(=O)Nc1nc2ccc([N+](=O)[O-])cc2s1`, the T/C [7] was 101 % of control, the T/C [8] was 99 % of control and the T/C [9] was 92 % of control.

For `CC(C)=CCc1c(-c2ccc(O)cc2O)oc2c([C@H]3C=C(C)CC(c4ccc(O)cc4O)[C@@H]3C(=O)c3ccc(O)cc3O)c(O)cc(O)c2c1=O` (stereo partly specified), the T/C (dose: 8.75 mg/kg/injection, schedule: Q01DX005 (ip), vehicle: Klucel (hydroxypropylcellulose) (HPC)) was 99 % of control, the T/C (dose: 17.5 mg/kg/injection, schedule: Q01DX005 (ip), vehicle: Klucel (hydroxypropylcellulose) (HPC)) was 98 % of control and the T/C (dose: 35.0 mg/kg/injection, schedule: Q01DX005 (ip), vehicle: Klucel (hydroxypropylcellulose) (HPC)) was 92 % of control. For the same compound, the T/C (dose: 70.0 mg/kg/injection, schedule: Q01DX005 (ip), vehicle: Klucel (hydroxypropylcellulose) (HPC)) was 92 % of control and the T/C (dose: 140.0 mg/kg/injection, schedule: Q01DX005 (ip), vehicle: Klucel (hydroxypropylcellulose) (HPC)) was 108 % of control.

In the case of `CC(C)NCCCC(=O)O`, the T/C (dose: 25.0 mg/kg/injection, schedule: Q01DX009 (ip), vehicle: water) is reported as 101 % of control, the T/C (dose: 50.0 mg/kg/injection, schedule: Q01DX009 (ip), vehicle: water) is reported as 99 % of control and the T/C (dose: 100.0 mg/kg/injection, schedule: Q01DX009 (ip), vehicle: water) is reported as 109 % of control. For the same compound, the T/C (dose: 200.0 mg/kg/injection, schedule: Q01DX009 (ip), vehicle: water) was 96 % of control and the T/C (dose: 400.0 mg/kg/injection, schedule: Q01DX009 (ip), vehicle: water) was 90 % of control.

For `Cc1c([C@H](C)[C@@H]2NC[C@@H](C)C[C@H]2O)ccc2c1C[C@H]1[C@H]2CC=C2C[C@@H](O)CC[C@@]21C`, the T/C (dose: 0.75 mg/kg/injection, schedule: Q01DX009 (ip), vehicle: saline with Tween-80) was 108 % of control, the T/C (dose: 1.5 mg/kg/injection, schedule: Q01DX009 (ip), vehicle: saline with Tween-80) was 115 % of control and the T/C [6] was 101 % of control and 113 % of control.

With `O=C(O)Cc1nn[nH]n1` the T/C (dose: 100.0 mg/kg/injection, schedule: Q04DX003 (ip), vehicle: Klucel (hydroxypropylcellulose) (HPC)) was 107 % of control and the T/C (dose: 200.0 mg/kg/injection, schedule: Q04DX003 (ip), vehicle: Klucel (hydroxypropylcellulose) (HPC)) was 108 % of control.

With `COc1cc(CCN)ccc1OCc1ccccc1` the T/C (dose: 25.0 mg/kg/injection, schedule: Q01DX009 (ip), vehicle: saline) was 107 % of control, the T/C (dose: 50.0 mg/kg/injection, schedule: Q01DX009 (ip), vehicle: saline) was 104 % of control and the T/C (dose: 100.0 mg/kg/injection, schedule: Q01DX009 (ip), vehicle: saline) was 110 % of control.

In the case of `CCCC(N)C(=O)NC(Cc1c[nH]c2ccccc12)C(=O)O` (stereo unspecified), the T/C [3] is reported as 101 % of control, the T/C [4] is reported as 102 % of control and the T/C [5] is reported as 103 % of control.

For `Cc1nonc1CCO`, the T/C (dose: 50.0 mg/kg/injection, schedule: Q01DX005 (ip), vehicle: saline) was 105 % of control, the T/C (dose: 100.0 mg/kg/injection, schedule: Q01DX005 (ip), vehicle: saline) was 102 % of control and the T/C (dose: 200.0 mg/kg/injection, schedule: Q01DX005 (ip), vehicle: saline) was 103 % of control.

`Cc1cn(CCCCCOc2c3ccoc3cc3oc(=O)ccc23)c(=O)[nH]c1=O` was tested, and the T/C (dose: 100.0 mg/kg/injection, schedule: Q01DX001 (ip), vehicle: Klucel (hydroxypropylcellulose) (HPC)) was 92 % of control, the T/C (dose: 200.0 mg/kg/injection, schedule: Q01DX001 (ip), vehicle: Klucel (hydroxypropylcellulose) (HPC)) was 90 % of control and the T/C (dose: 400.0 mg/kg/injection, schedule: Q01DX001 (ip), vehicle: Klucel (hydroxypropylcellulose) (HPC)) was 87 % of control.

In the case of `CCCCNP(=O)(N1CC1)N1CC1`, the T/C (dose: 0.2 mg/kg/injection, schedule: Q04DX003 (ip), vehicle: saline) is reported as 95 % of control, the T/C (dose: 0.4 mg/kg/injection, schedule: Q04DX003 (ip), vehicle: saline) is reported as 104 % of control and the T/C (dose: 0.8 mg/kg/injection, schedule: Q04DX003 (ip), vehicle: saline) is reported as 118 % of control. The T/C (dose: 6.0 mg/kg/injection, schedule: Q04DX003 (ip), vehicle: saline) was 195 % of control, the T/C (dose: 6.25 mg/kg/injection, schedule: Q01DX009 (ip), vehicle: saline) was 172 % of control and the T/C (dose: 6.25 mg/kg/injection, schedule: Q04DX003 (ip), vehicle: saline) was 154 % of control. The T/C (dose: 12.5 mg/kg/injection, schedule: Q01DX009 (ip), vehicle: saline) was 118 % of control, the T/C (dose: 12.5 mg/kg/injection, schedule: Q04DX003 (ip), vehicle: saline) was 172 % of control and the T/C (dose: 25.0 mg/kg/injection, schedule: Q04DX003 (ip), vehicle: saline) was 86 % of control.
